The results in this text go back to patent EP4445957A1, “ANTIBACTERIAL COVALENT PEPTIDE INHIBITORS” (priority 2023, dated 2024).

Read-outs that look alike come from different tables or passages of the source. Square brackets hold non-standard residues; d marks the D form. Peptide text beside a SMILES is read from it. * marks the point of attachment. Cha = N[C@@H](CC1CCCCC1)C(=O)O; Crotonyl(E) = C/C=C/C(=O)*; Dap = NC[C@H](N)C(=O)O; Acryloyl = C=CC(=O)*; BrAc = O=C(CBr)*; ClAc = O=C(CCl)*; X1 = CC#CC(=O)*

One assay has as its target EcwtSC (Escherichia coli, UniProt P0A988). In words: Isothermal Titration Calorimetry (ITC/kinITC), wild-type sliding clamp. Type of assay: binding, E. coli. How it is done:
ITC experiments were performed using an iTC200 or a PEAQ-ITC instrument (Microcal Malvern Panalytical). […] Data were corrected for the heat of injection by subtracting the signal of the titration of peptides into protein-free buffer solution either R1 buffer ([4-(2-hydroxyethyl)piperazine-1-ethanesulfonic acid (HEPES) 10 mM pH 7.4, NaCl 0.15 M, EDTA 3 mM] or AcNH4 pH7.4, 150 mM). Each titration was performed at least twice: the exact number of the experiments performed with each peptide is indicated in Tables 1-6. Reported data are mean values (± SD) of all experiments. Analyses of the experimental data were performed, following a classical treatment with AFFINImeter software (https://www.affinimeter.com; S4S, Santiago de Compostela, Spain). In addition, kinetic information was obtained in some cases with kinITC as implemented in software AFFINImeter (D. Burnouf et al., J. Am. Chem. Soc. 2012, 134, 559-565; and P. Dumas et al., in Methods Enzymol., Elsevier, 2016, pp. 157-180).
A general note: Isothermal titration calorimetry measures the heat released or taken up as one component is titrated into another.

The target in the next assay is EcH175GSC (Escherichia coli, UniProt P0A988, H175G). In words: Isothermal Titration Calorimetry (ITC/kinITC), H175G mutant sliding clamp. Type of assay: binding, E. coli. The conditions noted are these: for ΔΔH (ΔH reduction): H175G SC mutant compared to EcwtSC, 25 °C; for ΔΔH (ΔH reduction) / -TΔS / ΔG / ΔH: R1 buffer; for -TΔS / ΔG / ΔH: 25 °C (298.15K). As to the method: ITC experiments were performed using an iTC200 or a PEAQ-ITC instrument (Microcal Malvern Panalytical). Peptides (300 or 600 µM) were titrated at 25 °C by sequential injections (usually 2 µL each) into an SC solution (30 or 60 µM). Data were corrected for the heat of injection by subtracting the signal of the titration of peptides into protein-free buffer solution either R1 buffer ([4-(2-hydroxyethyl)piperazine-1-ethanesulfonic acid (HEPES) 10 mM pH 7.4, NaCl 0.15 M, EDTA 3 mM] or AcNH4 pH7.4, 150 mM). Each titration was performed at least twice: the exact number of the experiments performed with each peptide is indicated in Tables 1-6. Reported data are mean values (± SD) of all experiments. Analyses of the experimental data were performed, following a classical treatment with AFFINImeter software (https://www.affinimeter.com; S4S, Santiago de Compostela, Spain). In addition, kinetic information was obtained in some cases with kinITC as implemented in software AFFINImeter (D. Burnouf et al., J. Am. Chem. Soc. 2012, 134, 559-565; and P. Dumas et al., in Methods Enzymol., Elsevier, 2016, pp. 157-180).

A further assay deals with T1, EcSC (Escherichia coli, UniProt P0A988).
T1 construct: compatible with the molecular weight of ^EcSC monomer (40.6 kDa); endogenous in cells; host or cells: E. coli whole cell lysate
In words: Covalent adduct formation monitored by mass spectrometry, kinetic constants kinact. The conditions noted are these: for formation of covalent adducts: reaction monitored by mass spectrometry. Type of assay: biochemical, E. coli. How it is done: We consider the following two-steps reaction model to describe the binding of the peptide to SC and the covalent bond formation to the His 175 residue: • First step: the peptides bind reversibly to the SC binding site • Second: the formation of the covalent bond. [drawing 31]
Overall, no major effect of the incorporation of the warheads on the binding affinity was observed on the whole series of the TCls. […] Then, kinetic constants (kinact) of compounds 1 and 2 were determined at 22°C and 37°C (Table 7, entries 4 and 7).

[1] abbreviates: buffer AcNH4 pH 7.4, 150 mM, 295.15 K (22 °C).
Setting [2] is: buffer AcNH4 pH 7.4, 150 mM, 295.15 K (22 °C), read-out: KD.
The mark [3] stands for this setting: buffer AcNH4 pH 7.4, 150 mM, 310.15 K (37 °C).
[4] abbreviates: buffer AcNH4 pH 7.4, 150 mM, 310.15 K (37 °C), read-out: KD.
[5] abbreviates: buffer R1 (X 1), 295.15 K (22 °C).
[6] abbreviates: buffer R1 (X 1), 310.15 K (37 °C).

Chain of EcwtSC (P0A988 whole entry): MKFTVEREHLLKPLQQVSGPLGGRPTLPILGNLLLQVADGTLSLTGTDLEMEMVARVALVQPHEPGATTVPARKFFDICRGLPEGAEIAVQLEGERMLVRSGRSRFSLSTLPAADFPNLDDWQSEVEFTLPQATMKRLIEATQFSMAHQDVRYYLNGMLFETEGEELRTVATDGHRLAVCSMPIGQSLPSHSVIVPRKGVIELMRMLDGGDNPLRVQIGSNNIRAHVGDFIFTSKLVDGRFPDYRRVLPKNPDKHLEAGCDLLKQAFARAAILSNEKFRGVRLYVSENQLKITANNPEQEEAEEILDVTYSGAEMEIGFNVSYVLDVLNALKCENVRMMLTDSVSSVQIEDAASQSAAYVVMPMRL
T1 sequence (P0A988 whole entry): as above
Chain of EcH175GSC (P0A988 whole entry H175G): as the sequence (P0A988 whole entry) above, with H175G counted along it

As to `C=CC(=O)NC[C@H](NC(=O)[C@H](CC1CCCCC1)NC(=O)[C@H](CCC(N)=O)NC(C)=O)C(=O)N[C@@H](CC(C)C)C(=O)N[C@@H](Cc1ccccc1)C(=O)O` [Peptide 1, Ac-Gln-Cha-Dap(acrylamide)-Leu-Phe-OH] (Ac-Q[Cha][Dap](Acryloyl)LF-OH), the “-TΔS” value at EcwtSC (R1 buffer, 25 °C (298.15K)) was 3.7 (± 0.02) kcal/mol; at EcwtSC (setting [1]), 2.3 (± 0.7) kcal/mol; at EcwtSC (setting [3]), 6.9 (± 1.1) kcal/mol; on EcwtSC (setting [5]), 2.1 (± 0.2) kcal/mol; at EcwtSC (setting [6]), 4.9 (± 1.1) kcal/mol; at EcH175GSC it was 3.3 (±0.7) kcal/mol. In addition, the ΔG on EcwtSC (R1 buffer, 25 °C (298.15K)) is recorded as -9.2 (± 0.07) kcal/mol; on EcwtSC (setting [1]) it was -9.3 (± 0.3) kcal/mol; at EcwtSC (setting [3]), -8.9 (± 0.1) kcal/mol; at EcwtSC (setting [5]) it was -9.4 (± 0.2) kcal/mol; on EcwtSC (setting [6]), -9.04 (± 0.26) kcal/mol; at EcH175GSC, -8.3 (±0.1) kcal/mol. Also, the ΔH on EcwtSC (R1 buffer, 25 °C (298.15K)) is -12.8 (± 0.08) kcal/mol; at EcwtSC (setting [1]), -11.5 (± 0.5) kcal/mol; on EcwtSC (setting [3]), -15.9 (± 1.2) kcal/mol; at EcwtSC (setting [5]) it was -11.4 (± 0.4) kcal/mol; at EcwtSC (setting [6]), -13.9 (± 0.8) kcal/mol; on EcH175GSC, -11.6 (±0.6) kcal/mol. Also, the Kd (commonly the constant that tells how readily two partners part at equilibrium) at EcwtSC (setting [2]) worked out at 153 nM; at EcwtSC (setting [4]), 482 nM. The “ΔΔH (ΔH reduction)” value at EcH175GSC stood at 2.1 kcal/mol. For the same compound, at EcSC, the “formation of covalent adducts” value was “form covalent adducts”.
Regarding `CC(=O)N[C@@H](CCC(N)=O)C(=O)N[C@@H](CC1CCCCC1)C(=O)N[C@@H](CNC(=O)CCl)C(=O)N[C@@H](CC(C)C)C(=O)N[C@@H](Cc1ccccc1)C(=O)O` [Peptide 2, Ac-Gln-Cha-Dap(chloroacetamide)-Leu-Phe-OH] (Ac-Q[Cha][Dap](ClAc)LF-OH), the “-TΔS” value on EcwtSC (R1 buffer, 25 °C (298.15K)) is given as 2.5 (± 0.4) kcal/mol; at EcwtSC (setting [1]), 1.7 (± 1.5) kcal/mol; at EcwtSC (setting [3]), 8.1 (± 3.0) kcal/mol; at EcwtSC (setting [5]) it was -0.3 (± 0.1) kcal/mol; on EcwtSC (setting [6]), 2.3 (± 0.9) kcal/mol; at EcH175GSC, 1.2 (±0.1) kcal/mol. Further, the ΔG at EcwtSC (R1 buffer, 25 °C (298.15K)) is -9.2 (± 0.1) kcal/mol; on EcwtSC (setting [1]), -9.2 (± 0.1) kcal/mol; on EcwtSC (setting [3]), -8.9 (± 0.4) kcal/mol; on EcwtSC (setting [5]), -9.31 (± 0.03) kcal/mol; at EcwtSC (setting [6]) it was -9.03 (± 0.23) kcal/mol; on EcH175GSC it was -8.3 (±0.08) kcal/mol. Besides, the ΔH was -11.7 (± 0.4) kcal/mol on EcwtSC (R1 buffer, 25 °C (298.15K)); -10.9 (± 1.5) kcal/mol on EcwtSC (setting [1]); -16.9 (± 2.7) kcal/mol at EcwtSC (setting [3]); -8.9 (± 0.1) kcal/mol at EcwtSC (setting [5]); -11.3 (± 0.8) kcal/mol on EcwtSC (setting [6]); -9.6 (±0.1) kcal/mol at EcH175GSC. Besides, the Kd stood at 580 nM at EcwtSC (setting [4]) and 146 ± 20 nM on EcwtSC (read-out: KD (nM) at 22 °C (AcONH4 buffer), Table 7, 22 °C, AcONH4 buffer). The “ΔΔH (ΔH reduction)” value at EcH175GSC is reported as 3.2 kcal/mol. Further, at EcSC (37 °C, AcONH4 buffer, second-order rate constant), the “kinact (M^-1. s^-1) at 37 °C (AcONH4 buffer)” value was determined as 1.04 ± 0.01 M⁻¹ s⁻¹. Besides, the “formation of covalent adducts” value at EcSC is listed as “form covalent adducts”.
With `C/C=C/C(=O)NC[C@H](NC(=O)[C@H](CC1CCCCC1)NC(=O)[C@H](CCC(N)=O)NC(C)=O)C(=O)N[C@@H](CC(C)C)C(=O)N[C@@H](Cc1ccccc1)C(=O)O` [Peptide 3, Ac-Gln-Cha-Dap(but-2-enamide)-Leu-Phe-OH] (Ac-Q[Cha][Dap](Crotonyl(E))LF-OH), the “-TΔS” value was 1.1 (± 0.1) kcal/mol at EcwtSC (R1 buffer, 25 °C (298.15K)); 0.79 (± 0.52) kcal/mol at EcwtSC (setting [1]); 6.31 (±0.02) kcal/mol on EcwtSC (setting [3]); 1.8 (± 0.4) kcal/mol at EcwtSC (setting [5]); 5.8 (± 1) kcal/mol at EcwtSC (setting [6]). In addition, the ΔG on EcwtSC (R1 buffer, 25 °C (298.15K)) is -9.25 (± 0.01) kcal/mol; at EcwtSC (setting [1]), -9.02 (± 0.2) kcal/mol; on EcwtSC (setting [3]) it was -8.97 (± 0.06) kcal/mol; at EcwtSC (setting [5]), -9.7 (± 0.2) kcal/mol; at EcwtSC (setting [6]) it was -9.1 (± 0.2) kcal/mol. In addition, the ΔH on EcwtSC (R1 buffer, 25 °C (298.15K)) is on record as -10.4 (± 0.1) kcal/mol; at EcwtSC (setting [1]), -9.81 (± 0.4) kcal/mol; on EcwtSC (setting [3]), -15.3 (± 0.1) kcal/mol; on EcwtSC (setting [5]), -11.7 (± 0.6) kcal/mol; on EcwtSC (setting [6]), -14.8 (± 0.8) kcal/mol. The Kd at EcwtSC (setting [2]) worked out at 212 nM; at EcwtSC (read-out: KD (nM) at 37 °C (AcONH4 buffer), Table 7, 37 °C, AcONH4 buffer), 475 ± 47 nM.
For `CC(=O)N[C@@H](CCC(N)=O)C(=O)N[C@@H](CC1CCCCC1)C(=O)N[C@@H](CNC(=O)CBr)C(=O)N[C@@H](CC(C)C)C(=O)N[C@@H](Cc1ccccc1)C(=O)O` [Peptide 4, Ac-Gln-Cha-Dap(bromoacetamide)-Leu-Phe-OH] (Ac-Q[Cha][Dap](BrAc)LF-OH), the Kd is 111 ± 17 nM at EcwtSC (KD (nM) at 22 °C (AcONH4 buffer), Table 7, 22 °C, AcONH4 buffer); 139 ± 54 nM at EcwtSC (KD (nM) at 25°C (Hepes buffer), Table 7, 25°C, Hepes buffer); 281 ± 62 nM on EcwtSC (KD (nM) at 37 °C (AcONH4 buffer), Table 7, 37 °C, AcONH4 buffer); 141 nM on EcwtSC (R1 buffer, 25 °C (298.15K), read-out: KD); 111 nM on EcwtSC (setting [2]); 281 nM on EcwtSC (setting [4]). For the same compound, the Kd at EcwtSC (buffer R1 (X 1), 295.15 K (22 °C), read-out: KD) was 96.4 nM; at EcwtSC (buffer R1 (X 1), 310.15 K (37 °C), read-out: KD), 273 nM; on EcH175GSC, 730 nM.
With `CC#CC(=O)NC[C@H](NC(=O)[C@H](CC1CCCCC1)NC(=O)[C@H](CCC(N)=O)NC(C)=O)C(=O)N[C@@H](CC(C)C)C(=O)N[C@@H](Cc1ccccc1)C(=O)O` [Peptide 5, Ac-Gln-Cha-Dap(but-2-ynamide)-Leu-Phe-OH] (Ac-Q[Cha][Dap](X1)LF-OH), at EcwtSC (R1 buffer, 25 °C (298.15K)), the “-TΔS” value is 2.1 (± 0.1) kcal/mol, the ΔG is reported as -9.8 (± 0.1) kcal/mol and the ΔH is listed as -11.8 (± 0.06) kcal/mol. Also, at EcwtSC (setting [5]), the “-TΔS” value was 2.7 (± 1.2) kcal/mol, the ΔG is -10.5 (± 0.2) kcal/mol and the ΔH was -13.1 (± 1.2) kcal/mol. Besides, at EcwtSC (setting [6]), the “-TΔS” value was 6.9 (± 0.4) kcal/mol, the ΔG is -10.12 (± 0.03) kcal/mol and the ΔH is recorded as -17.0 (± 0.4) kcal/mol. At EcH175GSC, the “ΔΔH (ΔH reduction)” value is 2.0 kcal/mol, the “-TΔS” value was 0.04 (±0.3) kcal/mol, the ΔG is reported as -9.7 (±0.1) kcal/mol and the ΔH is -9.7 (±0.2) kcal/mol.
